{"source": "patent US12252708B2", "about": "“Living mammalian cells modified with functional modular nanoparticles” (UNM Rainforest Innovations, priority 2018, dated 2025)", "system": "HeLa cells", "test": "Cytoprotection test to DOX", "assay_type": "cell-based", "conditions": "native HeLa cells and SupraCell-MIL-100(Fe); nearly identical dose response curve; 2 hours", "protocol": "Then, the anticancer drug doxorubicin (diameter about 1.6 nm) or cytotoxic silver (Ag) nanocrystals (diameter about 5.0 nm) were added into the culture medium at different concentrations.\nCytoprotection test to DOX. The cytoprotection test was performed on Supracell-MIL-100 (Fe). Briefly, the native HeLa cells and Supracell-MIL-100 (Fe) were seeded on 96-well plate at the density of 200,000 cells/mL. Then different concentration of DOX (0.01, 0.1, 1.0, 10, 20, and 50 μg/ML) was added in the cell culture media under cell culture condition. After incubation for 2 hours, the viability of the cells or SupraCells was measured by CellTiter-Glo® 2.0 Assay.", "data": [{"compound": "COc1cccc2c1C(=O)c1c(O)c3c(c(O)c1C2=O)C[C@@](O)(C(=O)CO)C[C@@H]3O[C@H]1C[C@H](N)[C@H](O)[C@H](C)O1", "note": "[doxorubicin]", "values": [{"measurement": "sensitivity of cells to the drug (viability)", "result": "sensitive"}]}]}
